Experimental data as given in US7102056B1, “Compositions and methods for plant transformation and regeneration” (The Regents of the University of California, priority 1997, dated 2006).

Key:
Galena immature embryos = assay: Callus-induction frequency on callus-induction media (CIM); format: cell-based, barley (Hordeum vulgare L.); settings: Galena half embryos on CIM; 2 to 3 weeks after initial culturing; means ± SD of three replicates
Protocol: (§1) Immature embryos (about 1.5-2.5 mm in size) were taken from spikes approximately three months in age that were surface-sterilized in 20% (v/v) bleach (5.25% sodium hypochlorite) for 7 min. washed 5 min with sterile water three times, bisected longitudinally, and placed on CIM. Ten half-embryos were tested on CIM supplemented with each of the fourteen phytohormone combinations; each treatment had three replicates. (Whole embryos can also be used.) Callus-induction frequency was measured by counting numbers of half embryos undergoing callus induction under a light microscope 2 to 3 weeks after initial culturing.
(§2) Immature zygotic embryos about 1.5 to 2.5 mm in size were dissected and isolated intact under a stereo dissecting microscope from seeds that were surface-sterilized for 10 min in 20% (v/v) bleach (5.25% sodium hypochlorite) followed by three washes in sterile water. The embryos were placed scutellum-side down on CIM.
(§3) Six different CIMs were used to test callus-induction frequencies and callus quality. The CIMs had, respectively, different concentrations of: 2,4-D (1.0 and 2.5 mg/L), BAP (0.01, 0.1 and 0.5 mg/L), and cupric sulfate (CuSO4; 0.1 and 5.0 μM) as shown in Table 7.
(§4) The initial callus-induction frequency was determined using CIM of different compositions. Ten immature embryos from the barley genotypes Golden Promise and Galena were transferred to each CIM. Each CIM contained the following levels of hormones and copper: D, 2.5 mg/L 2,4-D and 0.1 μM CuSO4; DC, 2.5 mg/L 2,4-D and 5.0 μM CuSO4; DB, 2.5 mg/L 2,4-D, 0.1 mg/L BAP, 0.1 μM CuSO4; DBC1, 2.5 mg/L 2,4-D, 0.01 mg/L BAP and 5.0 μM CuSO4; DBC2, 2.5 mg/L 2,4-D, 0.1 mg/L BAP and 5.0 μM CuSO4; DBC3, 1.0 mg/L 2,4-D, 0.5 mg/L BAP and 5.0 μM CuSO4. Callus quality was assessed microscopically and scored on a scale with ++++ designating highest quality and +designating lowest quality. Values were measured three weeks after initial callus induction and represent means of three replicates for each treatment. […] Tissue quality was poor on CIM containing BAP three weeks after induction but improved after two to three transfers on this medium. Only a fraction of scutellar tissues on Galena immature embryos formed callus, while most of the scutellar surface on Golden Promise immature embryos formed high-quality callus.

[1] = test system: Golden Promise immature embryos; assay: as above; format: cell-based, barley (Hordeum vulgare L.); settings: Golden Promise half embryos on CIM; 2 to 3 weeks after initial culturing; means ± SD of three replicates
Protocol: as §1, §2, §3, §4

[2] = test system: nontransgenic callus tissues of Golden Promise; assay: Regeneration via an intermediate-incubation step, nontransgenic callus; format: cell-based, barley; settings: two-month-old callus of Golden Promise maintained on CIM containing the auxin alone
Protocol: Callus induction was performed as described above using CIM with 2.5 mg/L of 2,4-D or dicamba (no cytokinin). After incubation for three weeks at 24±1° C. in the dark, callus was cut into small pieces (about 3 to 4 mm), then maintained on the same medium with subculturing at three-week intervals.
Ten pieces of two-month-old nontransgenic calli grown on CIM supplemented with either 2,4-D or dicamba in the dark were transferred to RM either directly or following incubation on an IIM.
Two different IIM were used, DBC2 and DBC3. DBC2 medium is CIM containing 2.5 mg/L 2,4-D, 0.1 mg/L BAP, and 5.0 μM copper (cupric sulfate). DBC3 medium is CIM containing 1.0 mg/L 2,4-D, 0.5 mg/L BAP, and 5.0 μM copper. After growing calli on these media for 3-4 weeks under dim light conditions (20 to 30 μE; 16 h light/8 h dark), the numbers of calli producing green sectors or green regenerative structures were counted. Green sectors and small green regenerative structures were then transferred to fresh RM and grown under higher light intensity (45-55 μE). After 3-4 weeks, the numbers of green shoots per callus piece were counted. […]

[3] = test system: Golden Promise immature embryos; assay: Callus quality on twelve callus-induction media (auxin types, copper); format: cell-based, barley
Protocol: (§5) To examine the effects of different types of auxins and concentrations of copper on callus quality and regenerability in barley, twelve different media were tested, using methods essentially as described in Example 2 above.

calli of Golden Promise = assay: Regenerability of calli from twelve callus-induction media (auxin types, copper); format: cell-based, barley
Protocol: as §5

[4] = test system: green tissue of Golden Promise, Galena and Harrington; assay: Selection and regeneration of bombarded green tissues with selective agents; format: cell-based; settings: bombarded barley green tissues under selection
Protocol: The green regenerative tissues generated and maintained on one or two of these media, DBC2 (comprising 2.5 mg/L 2,4-D, 0.1 mg/L BAP and 5.0 μM CuSO4, Cho et al., 1998) or DBC3 (comprising 1.0 mg/L 2,4-D, 0.5 mg/L BAP and 5.0 μM CuSO4, Cho et al., 1998), were used directly as transformation targets. For bombardment, 3 to 4 mm pieces of green tissue of Golden Promise, Galena and Harrington, removed 3 to 4 months after initiation of the original culture, were osmotically treated on DBC2 or DBC3 medium and bombarded the same day with three different selection constructs, ubi-bar/ubi-uidA, ubi-nptII/ubi-uidA and act-hpt/ubi-uidA. […] Sixteen to 18 hr post-bombardment, green tissues were transferred without osmoticum or selective agent to dim light on DBC2 or DBC3 medium for Golden Promise and Harrington or DBC3 for Galena. Selection with all agents started […] post-bombardment to allow for proliferation of transformed cells in the absence of the cell death resulting from wounding or selection. At that time, tissue was broken into pieces (3-5 mm) and transferred to either DBC2 or DBC3 medium (depending on morphology) with 3 mg/L bialaphos (bar), 20-25 mg/L hygromycin B (hpt) or 30 mg/L G418 (nptII), depending on the construct used. Starting with the third round of selection, levels of selective agent were increased to 45 mg/L bialaphos, 25 mg/L hygromycin B or 40 mg/L G418. […]

Structure (SMILES)	Callus Induction Frequency (%) GAL (Galena immature embryos)	Callus Induction Frequency (%) GP [1]	green shoots per callus piece [2]	induction of calli which regenerated green plants (calli of Golden Promise)	albino plants during regeneration of selected tissues [4]	further results
O=C(O)COc1ccc(Cl)cc1Cl [2,4-D, 2,4-dichlorophenoxyacetic acid]	~100%	~100%	0.35	–	–	–
O=C(O)Cc1c[nH]c2ccccc12 [IAA]	–	–	–	Neither IAA nor NAA was optimal	–	callus quality [3]: poorer callus quality than the other auxins
O=C(O)Cc1cccc2ccccc12 [NAA]	–	–	–	Neither IAA nor NAA was optimal	–	–
C[C@H](NC(=O)[C@H](C)NC(=O)[C@@H](N)CCP(C)(=O)O)C(=O)O [bialaphos]	–	–	–	–	no albino plants were observed	–
COc1c(Cl)ccc(Cl)c1C(=O)O [dicamba]	~100%	~100%	1.15	–	–	–
CN[C@H]1C[C@@H](N)[C@H](O)[C@@H](O[C@@H]2O[C@H](CO)[C@H](O)[C@@H]3OC4(O[C@H]23)O[C@H]([C@@H](N)CO)[C@H](O)[C@H](O)[C@H]4O)[C@@H]1O (some centres unmarked) [hygromycin B]	–	–	–	–	frequently albino plants were observed	–
